Data on two molecules can be found in paper PMC10223284, “Category-Based Toxicokinetic Evaluations of Data-Poor Per- and Polyfluoroalkyl Substances (PFAS) using Gas Chromatography Coupled with Mass Spectrometry” (Toxics, 2023).

By amount remaining is commonly meant what is left of the initial amount, in per cent. The low end stands for more turnover, the high end for less turnover. A word on the fraction unbound: it is free concentration divided by total concentration. Read a low fraction unbound as little free substance.

Data set [1] in a line: Abiotic loss in negative controls of the hepatocyte clearance assay (cell-free media, metabolically inactivated hepatocytes). Format: in vitro ADME. The conditions noted are these: flag for stability failure in hepatocyte clearance assay controls (1 or Fst = fail, 0 = pass). A digest of the protocol: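 Test compound at 1 μM incubated at 37 °C with shaking in complete William's medium E, either cell-free or with metabolically inactivated hepatocytes, then quenched with ice-cold acetonitrile for quantitative analysis.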

Data set [2] can be described thus: Chemical stability in plasma over the UC assay time course (T5hr/T1hr). To be noted: both, human, plasma.
For data set [3], the system named is human plasma. Described as above. The conditions noted are these: for PPB_Stab_Fail: flag for stability failure in the plasma protein binding assay (1 = fail, 0 = pass); for Fstable.Med: median fraction stable in plasma, UC assay Level4.
Data set [4] in a line: Ultracentrifugation (UC) plasma protein binding assay, fraction unbound in plasma (fup). To be noted: both, human, plasma.
Data set [5] has as its system human plasma. Described as above. To be noted: for Fup.Med: median fraction unbound in plasma; for Fup.Med / Fup.point: UC assay Level4; for Fup.point: point estimate of fraction unbound in plasma.

The structures appear in SMILES notation. Several values for one entry are separate records, joined by “and”; a condition that tells them apart may be missing. Equal values may be shown once.

The molecule `FC(F)C(F)(F)COCC1CO1` (centres unmarked) [((2,2,3,3-Tetrafluoropropoxy)methyl)oxirane] came in with a Hep_Stab_Fail in data set [1] of 1. In data set [2], this molecule registered a fraction remaining at 5 h, 10 μM of 66%. Also, in the data set with human plasma [3], the PPB_Stab_Fail turned out to be 0 and the Fstable.Med is given as 0.531. The fraction unbound at 5 h, 10 μM in data set [4] (Mean fu, fraction unbound in human plasma, ultracentrifugation, some values based on eLOQ) was 0.841. For the same molecule, in the data set with human plasma [5], the Fup.Med is 0.63 and the Fup.point is given as 0.762.

The molecule `NC(O)(C(F)(F)F)C(F)(F)F` [2-Aminohexafluoropropan-2-ol] had a Hep_Stab_Fail in data set [1] of 1. The fraction remaining at 5 h, 10 μM in data set [2] was found to be 76%. Further, the “Stability (T5hr/ T1hr), Run-specific Avg” value in the data set with human plasma [3] (average of one UC run (run date in line above)) was 0.77 and 0.751. In the data set with human plasma [3], this molecule showed a PPB_Stab_Fail of 0 and a Fstable.Med of 0.225. For the same molecule, the “Mean Stability” value with human plasma [3] (mean T5hr/T1hr ratio over all replicates and runs, plasma) amounted to 0.76. In the data set with human plasma [3] (single replicate of one UC run), the “Stability (T5hr/ T1hr), replicates A, B, C” value is 0.60 and 0.78 and 0.93 and 0.61 and 0.77 and 0.88. For the same molecule, the fraction unbound at 5 h, 10 μM in data set [4] (Fraction Unbound (fu), Run-specific Avg, average of one UC run (run date in line above)) came to 0.993. In data set [4] (Fraction Unbound (fu), replicates A, B, C, single replicate of one UC run (aqueous fraction / Time 5 hr)), the fraction unbound at 5 h, 10 μM came out at 1. This molecule also returned a fup in the data set with human plasma [5] (human plasma, 10 μM, ultracentrifugation, 37 °C) of 1. Besides, in the data set on human plasma [5], the Fup.Med is on record as 0.867 and the Fup.point is given as 0.963. Besides, the “Fraction Unbound (fu), replicates A, B, C” value in the data set on human plasma [5] (single replicate of one UC run (aqueous fraction / Time 5 hr)) was 0.90 and 0.77 and 0.85.
